# According to US20250230193A1, “CYCLIC COMPOUND HAVING SELECTIVE KRAS INHIBITORY EFFECT ON HRAS AND NRAS” (CHUGAI SEIYAKU KABUSHIKI KAISHA, priority 2022, published 2025):
# Where a SMILES comes first, the peptide text is derived from it. Bridges are numbered along the chain shown (N, C = ends). [ ]: non-standard residue; d: D form. The star is where a group is joined. hPhe(3,5-F2-4-CF3) = N[C@@H](CCc1cc(F)c(C(F)(F)F)c(F)c1)C(=O)O; hPhe(3-Cl-4-CF3) = N[C@@H](CCc1ccc(C(F)(F)F)c(Cl)c1)C(=O)O; NPrPhe(4-CF3) = CCCN[C@@H](Cc1ccc(C(F)(F)F)cc1)C(=O)O; NMePhe(4-Me) = CN[C@@H](Cc1ccc(C)cc1)C(=O)O; NMePhe(4-F) = CN[C@@H](Cc1ccc(F)cc1)C(=O)O; NMeGly(cPent) = CN[C@H](C(=O)O)C1CCCC1; NMeD = CN[C@@H](CC(=O)O)C(=O)O; NMeL = CN[C@@H](CC(C)C)C(=O)O; NMeNva = CCC[C@H](NC)C(=O)O; αMeS = C[C@](N)(CO)C(=O)O; Morpholide = C1CN(*)CCO1; NMeA = CN[C@@H](C)C(=O)O; NMeAib = CNC(C)(C)C(=O)O; Nle = CCCC[C@H](N)C(=O)O; Piperidide = C1CCN(*)CC1; Ac5c = NC1(C(=O)O)CCCC1; Aze = O=C(O)[C@@H]1CCN1; Ac4c = NC1(C(=O)O)CCC1; NPrGly = CCCNCC(=O)O; Sar = CNCC(=O)O
# Experiments:
# [1] = target: GDP-bound HRAS wild-type protein (Homo sapiens, UniProt P01112); assay: Binding to HRAS by surface plasmon resonance (SPR), Single Cycle Kinetics; conditions: for HRAS/KRAS (ratio of KD value for HRAS to KD value for KRAS): GDP-bound HRAS wild-type vs GDP-bound KRAS wild-type
# [2] = target: GDP-bound NRAS wild-type protein (Homo sapiens, UniProt P01111); assay: Binding to NRAS by surface plasmon resonance (SPR), Single Cycle Kinetics; conditions: for NRAS/KRAS (ratio of KD value for NRAS to KD value for KRAS): GDP-bound NRAS wild-type vs GDP-bound KRAS wild-type
# GDP-bound NRAS wild-type protein, sequence (P01111 whole entry): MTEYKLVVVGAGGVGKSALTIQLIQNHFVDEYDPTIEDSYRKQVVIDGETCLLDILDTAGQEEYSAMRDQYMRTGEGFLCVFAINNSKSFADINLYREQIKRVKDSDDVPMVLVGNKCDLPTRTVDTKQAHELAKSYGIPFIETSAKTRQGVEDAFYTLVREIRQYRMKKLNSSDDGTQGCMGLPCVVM
# GDP-bound HRAS wild-type protein, sequence (P01112 whole entry): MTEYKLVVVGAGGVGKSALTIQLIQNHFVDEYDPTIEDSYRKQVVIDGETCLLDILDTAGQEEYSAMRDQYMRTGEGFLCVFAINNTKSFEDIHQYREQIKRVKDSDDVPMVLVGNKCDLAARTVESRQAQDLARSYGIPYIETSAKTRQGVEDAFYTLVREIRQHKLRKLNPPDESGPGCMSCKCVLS
structure (smiles),measurement,setting,value
CC[C@H](C)[C@@H]1NC(=O)[C@H](CC(C)C)N(C)C(=O)C[C@@H](C(=O)N2CCOCC2)N(C)C(=O)[C@H](C2CCCC2)N(C)C(=O)C2(CCCC2)NC(=O)[C@@H]2CCCN2C(=O)[C@H](CCc2ccc(C(F)(F)F)c(Cl)c2)NC(=O)CN(C)C(=O)[C@H](Cc2ccc(F)cc2)N(C)C(=O)[C@@H]2CCN2C(=O)[C@H](C)N(C)C1=O [PP0217] ([NMeL]I[NMeA][Aze][NMePhe(4-F)][Sar][hPhe(3-Cl-4-CF3)]P[Ac5c][NMeGly(cPent)][NMeD]-Morpholide; lactam N-11),HRAS/KRAS (ratio of KD for GDP-bound HRAS wild-type to KD for KRAS),[1]; SPR,C (A compound having a KD ratio of 0.1 or more and less than 3 is denoted as C)
same,NRAS/KRAS (ratio of KD for GDP-bound NRAS wild-type to KD for KRAS),[2]; SPR,C (A compound having a KD ratio of 0.1 or more and less than 3 is denoted as C)
CCCN(C)C(=O)[C@@H]1CC(=O)N(C)[C@@H](CC(F)F)C(=O)N[C@@H]([C@@H](C)CC)C(=O)N(C)CC(=O)N(C)[C@H]2C/C=C\CCN(C2=O)[C@@H](Cc2ccc(C(F)(F)F)cc2)C(=O)N(C)CC(=O)N[C@@H](CCc2cc(F)c(Cl)c(F)c2)C(=O)N2C[C@H](OCC)C[C@H]2C(=O)NC2(CC(C)(C)C2)C(=O)N(C)[C@@H](C2CCCC2)C(=O)N1C [PP1757],HRAS/KRAS (ratio of KD value for HRAS to KD value for KRAS),[1]; SPR,A (a compound having 10 or more and less than 20 is denoted as A)
same,NRAS/KRAS (ratio of KD value for NRAS to KD value for KRAS),[2]; SPR,AA (a compound having 20 or more is denoted as AA)
CCC[C@H]1C(=O)N[C@@H]([C@@H](C)CC)C(=O)N(C)CC(=O)N(CCC)CC(=O)N(CCC)[C@@H](Cc2ccc(C(F)(F)F)cc2)C(=O)N(C)CC(=O)N[C@@H](CCc2ccc(C(F)(F)F)c(Cl)c2)C(=O)N2CCC[C@H]2C(=O)NC2(CCC2)C(=O)N(C)[C@@H](C2CCCC2)C(=O)N(C)[C@H](C(=O)N2CCOCC2)CC(=O)N1C [PP1949] ([NMeNva]I[Sar][NPrGly][NPrPhe(4-CF3)][Sar][hPhe(3-Cl-4-CF3)]P[Ac4c][NMeGly(cPent)][NMeD]-Morpholide; lactam N-11),HRAS/KRAS (ratio of KD value for HRAS to KD value for KRAS),[1]; SPR,C (A compound having a KD ratio of 0.1 or more and less than 3 is denoted as C)
same,NRAS/KRAS (ratio of KD value for NRAS to KD value for KRAS),[2]; SPR,C (A compound having a KD ratio of 0.1 or more and less than 3 is denoted as C)
CCCOC[C@H]1C(=O)N[C@@H]([C@@H](C)CC)C(=O)N(C)CC(=O)N(C)[C@H]2C/C=C\CCN(C2=O)[C@@H](Cc2ccc(C)cc2)C(=O)N(C)CC(=O)N[C@@H](CCc2cc(F)c(C(F)(F)F)c(F)c2)C(=O)N2C[C@H](OCC)C[C@H]2C(=O)NC2(CC(C)(C)C2)C(=O)N(C)[C@@H](CC(C)(C)C)C(=O)N(C)[C@H](C(=O)N(C)C)CC(=O)N1C [PP2708],HRAS/KRAS (ratio of KD value with respect to GDP-bound HRAS wild-type protein to KD value with respect to KRAS),[1]; class symbols,A (a compound having 10 or more and less than 20 is denoted as A)
same,NRAS/KRAS (ratio of KD value with respect to GDP-bound NRAS wild-type protein to KD value with respect to KRAS),[2]; class symbols,A (a compound having 10 or more and less than 20 is denoted as A)
CCCC[C@@H]1NC(=O)[C@H](CCc2ccc(C(F)(F)F)c(Cl)c2)NC(=O)CN(C)C(=O)[C@H](Cc2ccc(C)cc2)N(C)C(=O)[C@@H]2CCN2C(=O)[C@H](C)N(C)C(=O)[C@H]([C@@H](C)CC)NC(=O)[C@H](CC(C)C)N(C)C(=O)C[C@@H](C(=O)N2CCCCC2)N(C)C(=O)[C@H](CC(C)C)NC(=O)C(C)(C)N(C)C1=O [PP0047] ([NMeL]I[NMeA][Aze][NMePhe(4-Me)][Sar][hPhe(3-Cl-4-CF3)][Nle][NMeAib]L[NMeD]-Piperidide; lactam N-11),HRAS/KRAS (ratio of KD for GDP-bound HRAS wild-type to KD for KRAS),[1]; SPR,C (A compound having a KD ratio of 0.1 or more and less than 3 is denoted as C)
same,NRAS/KRAS (ratio of KD for GDP-bound NRAS wild-type to KD for KRAS),[2]; SPR,C (A compound having a KD ratio of 0.1 or more and less than 3 is denoted as C)
CC[C@H](C)[C@@H]1NC(=O)[C@H](CC(C)C)N(C)C(=O)C[C@@H](C(=O)N2CCOCC2)N(C)C(=O)[C@H](C2CCCC2)N(C)C(=O)C2(CCCC2)NC(=O)[C@@H]2C[C@H](OC)CN2C(=O)[C@H](CCc2cc(F)c(C(F)(F)F)c(F)c2)NC(=O)CN(C)C(=O)[C@H](Cc2ccc(C(F)(F)F)cc2)N2CCCC[C@@H](C2=O)N(C)C(=O)CN(C)C1=O [PP0557],HRAS/KRAS (ratio of KD value with respect to GDP-bound HRAS wild-type protein to KD value with respect to KRAS),[1]; SPR,B (a compound having 3 or more and less than 10 is denoted as B)
same,NRAS/KRAS (ratio of KD value with respect to GDP-bound NRAS wild-type protein to KD value with respect to KRAS),[2]; SPR,B (a compound having 3 or more and less than 10 is denoted as B)
"CCCN1C(=O)CN(C)C(=O)[C@@H]2CCN2C(=O)[C@H]([C@@H](C)CC)NC(=O)[C@H](CC(C)C)N(C)C(=O)C[C@@H](C(=O)N2CCOCC2)N(C)C(=O)[C@H](C2CCCC2)N(C)C(=O)[C@](C)(COC)NC(=O)[C@@H]2CCCN2C(=O)[C@H](CCc2cc(F)c(C(F)(F)F)c(F)c2)NC(=O)CN(C)C(=O)[C@@H]1Cc1ccc(C(F)(F)F)cc1 [PP0779] ([NMeL]I[Aze][Sar][NPrPhe(4-CF3)][Sar][hPhe(3,5-F2-4-CF3)]P[αMeS](Me)[NMeGly(cPent)][NMeD]-Morpholide; lactam N-11)",HRAS/KRAS (ratio of KD value with respect to GDP-bound HRAS wild-type protein to KD value with respect to KRAS),[1]; SPR,B (a compound having 3 or more and less than 10 is denoted as B)
same,NRAS/KRAS (ratio of KD value with respect to GDP-bound NRAS wild-type protein to KD value with respect to KRAS),[2]; SPR,B (a compound having 3 or more and less than 10 is denoted as B)
